We go through two molecules from ChEMBL document CHEMBL2074451, “ATP- and glutathione-dependent transport of chemotherapeutic drugs by the multidrug resistance protein MRP1” (Br J Pharmacol, 1999).

The target in series [1] is Multidrug resistance-associated protein 1 (Homo sapiens, UniProt P33527). Briefly: TP_TRANSPORTER: uptake in membrane vesicles from GLC4/ADR cells. The class given is functional, cell membranes, Membrane vesicle. Conditions: glc-4/adr.
The target in series [2] is ATP-dependent translocase ABCB1 (Homo sapiens, UniProt P08183). Briefly: TP_TRANSPORTER: uptake in A2780 and A2780AD cells. It is filed as functional, cell-based.
ATP-dependent translocase ABCB1, sequence (P08183 whole entry): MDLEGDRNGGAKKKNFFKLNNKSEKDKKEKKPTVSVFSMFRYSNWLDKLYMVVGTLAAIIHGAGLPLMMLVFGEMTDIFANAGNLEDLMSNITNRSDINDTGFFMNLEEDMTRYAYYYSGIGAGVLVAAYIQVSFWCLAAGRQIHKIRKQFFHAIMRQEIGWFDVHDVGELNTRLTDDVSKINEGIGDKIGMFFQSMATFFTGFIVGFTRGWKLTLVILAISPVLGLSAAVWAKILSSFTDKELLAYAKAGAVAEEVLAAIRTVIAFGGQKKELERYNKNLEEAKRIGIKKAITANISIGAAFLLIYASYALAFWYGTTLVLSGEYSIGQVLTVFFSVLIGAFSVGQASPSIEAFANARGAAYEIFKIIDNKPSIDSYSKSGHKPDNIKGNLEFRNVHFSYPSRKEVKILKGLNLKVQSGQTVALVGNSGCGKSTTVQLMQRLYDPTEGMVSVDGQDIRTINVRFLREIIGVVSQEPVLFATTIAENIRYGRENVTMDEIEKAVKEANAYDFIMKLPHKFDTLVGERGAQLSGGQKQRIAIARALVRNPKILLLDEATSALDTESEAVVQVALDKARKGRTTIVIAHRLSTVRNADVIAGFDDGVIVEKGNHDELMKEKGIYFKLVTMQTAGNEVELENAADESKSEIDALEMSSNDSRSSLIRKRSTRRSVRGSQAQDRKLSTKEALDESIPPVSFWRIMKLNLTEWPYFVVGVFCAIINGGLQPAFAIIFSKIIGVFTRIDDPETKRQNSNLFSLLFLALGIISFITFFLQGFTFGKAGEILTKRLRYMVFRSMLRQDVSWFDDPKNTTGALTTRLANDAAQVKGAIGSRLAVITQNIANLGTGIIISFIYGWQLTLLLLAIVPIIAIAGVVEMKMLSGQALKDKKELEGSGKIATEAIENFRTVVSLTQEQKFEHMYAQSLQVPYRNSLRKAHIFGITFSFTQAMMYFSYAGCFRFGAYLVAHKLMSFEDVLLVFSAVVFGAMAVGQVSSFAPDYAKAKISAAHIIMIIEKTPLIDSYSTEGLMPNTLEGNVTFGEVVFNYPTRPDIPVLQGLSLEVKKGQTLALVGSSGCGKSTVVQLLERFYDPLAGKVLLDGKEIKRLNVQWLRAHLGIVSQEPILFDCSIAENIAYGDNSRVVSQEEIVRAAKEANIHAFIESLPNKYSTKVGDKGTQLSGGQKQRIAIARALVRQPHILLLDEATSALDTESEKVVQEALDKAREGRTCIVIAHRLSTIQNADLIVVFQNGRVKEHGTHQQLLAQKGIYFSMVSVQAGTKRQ

Multidrug resistance-associated protein 1, sequence (P33527 whole entry): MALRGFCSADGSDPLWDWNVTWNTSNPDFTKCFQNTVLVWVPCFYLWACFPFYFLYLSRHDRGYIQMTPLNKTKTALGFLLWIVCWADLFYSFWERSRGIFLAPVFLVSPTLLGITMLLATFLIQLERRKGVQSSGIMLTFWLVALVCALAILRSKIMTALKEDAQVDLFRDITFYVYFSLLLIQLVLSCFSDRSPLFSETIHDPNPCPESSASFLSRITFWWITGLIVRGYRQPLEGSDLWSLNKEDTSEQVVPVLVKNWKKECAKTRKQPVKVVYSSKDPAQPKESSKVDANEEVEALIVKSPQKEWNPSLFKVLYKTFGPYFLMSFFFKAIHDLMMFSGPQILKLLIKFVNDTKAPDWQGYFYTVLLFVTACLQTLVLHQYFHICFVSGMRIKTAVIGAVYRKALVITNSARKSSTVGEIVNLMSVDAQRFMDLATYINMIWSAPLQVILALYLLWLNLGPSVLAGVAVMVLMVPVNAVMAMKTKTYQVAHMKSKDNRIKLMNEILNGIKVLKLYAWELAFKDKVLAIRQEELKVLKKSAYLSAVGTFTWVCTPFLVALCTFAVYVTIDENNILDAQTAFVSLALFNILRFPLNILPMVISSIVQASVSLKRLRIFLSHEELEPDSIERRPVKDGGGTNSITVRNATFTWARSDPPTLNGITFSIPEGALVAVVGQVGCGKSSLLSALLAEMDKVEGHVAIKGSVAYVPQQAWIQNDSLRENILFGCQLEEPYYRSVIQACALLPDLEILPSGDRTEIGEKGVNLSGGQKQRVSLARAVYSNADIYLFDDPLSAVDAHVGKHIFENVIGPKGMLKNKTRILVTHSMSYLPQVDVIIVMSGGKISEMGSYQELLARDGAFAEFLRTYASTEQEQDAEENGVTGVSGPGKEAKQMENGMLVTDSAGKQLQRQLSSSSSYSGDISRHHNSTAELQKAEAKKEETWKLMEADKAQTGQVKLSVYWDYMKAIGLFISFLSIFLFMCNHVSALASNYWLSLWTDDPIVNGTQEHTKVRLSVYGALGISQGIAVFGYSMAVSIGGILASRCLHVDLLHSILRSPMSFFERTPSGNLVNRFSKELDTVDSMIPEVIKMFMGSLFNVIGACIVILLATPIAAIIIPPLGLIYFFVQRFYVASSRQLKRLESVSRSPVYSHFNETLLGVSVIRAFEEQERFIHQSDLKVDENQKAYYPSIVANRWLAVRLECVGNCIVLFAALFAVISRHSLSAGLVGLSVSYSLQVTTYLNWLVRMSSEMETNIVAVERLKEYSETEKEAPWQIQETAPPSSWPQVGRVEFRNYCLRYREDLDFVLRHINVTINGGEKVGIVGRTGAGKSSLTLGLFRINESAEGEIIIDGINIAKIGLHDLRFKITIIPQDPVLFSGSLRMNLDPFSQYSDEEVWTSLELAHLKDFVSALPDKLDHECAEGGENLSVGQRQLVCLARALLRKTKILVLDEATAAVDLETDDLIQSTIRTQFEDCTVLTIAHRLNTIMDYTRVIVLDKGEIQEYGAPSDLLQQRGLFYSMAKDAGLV

As to `CC[C@]1(O)C[C@H]2CN(CCc3c([nH]c4ccccc34)[C@@](C(=O)OC)(c3cc4c(cc3OC)N(C=O)[C@H]3[C@@](O)(C(=O)OC)[C@H](OC(C)=O)[C@]5(CC)C=CCN6CC[C@]43[C@@H]65)C2)C1` [VINCRISTINE], the Activity entry in series [1] is “substrate [+]”.
For `CCC1C[N+]2(CCCC3(C)N=N3)C3CC45c6ccccc6N(C)C4C2CC1C3C5O` (configuration not stated), the Activity result in series [2] is “substrate [+]”.
